Earlier results in patent publication US20220184102A1, “COMPOSITIONS AND METHODS FOR TREATING AGE-RELATED MACULAR DEGENERATION” (priority 2019, published 2022).

What was measured:
chronic periodontitis = details: 20 mg twice daily, two years
intestinal flora = details: 20 mg twice-daily for 9 months
[1] = test system: early seropositive rheumatoid arthritis; details: 20 mg twice-daily (subantimicrobial dose) plus MTX
[2] = test system: neovascular exudative AMD; details: oral minocycline combined with reduced-fluence PDT, intravitreal ranibizumab, intravitreal dexamethasone

Structure (SMILES)	tolerability (adult periodontitis; 10 mg daily, 20 mg daily or 20 mg twice daily, 9-12 months)	resistance to doxycycline (adult periodontitis; during the course of the study)	liver or kidney function tests versus control group (adult periodontitis; treatment groups)	microbiological resistance (chronic periodontitis)	safety issues (chronic periodontitis)	antibacterial effect on intestinal flora (intestinal flora)	number of adverse events versus placebo group [1]	safety concerns [2]	levels in the brain relative to doxycycline at the same dose [fold]
C[C@H]1c2cccc(O)c2C(=O)C2=C(O)[C@]3(O)C(=O)C(C(N)=O)=C(O)[C@@H](N(C)C)[C@@H]3[C@@H](O)[C@@H]21 [doxycycline]	well-tolerated	no resistance developed	No clinically significant differences	no sign of microbiological resistance	no significant safety issues	no antibacterial effect	equivalent		
CN(C)c1ccc(O)c2c1C[C@H]1C[C@H]3[C@H](N(C)C)C(O)=C(C(N)=O)C(=O)[C@@]3(O)C(O)=C1C2=O [minocycline]								No safety concerns were identified	~3
